Measured values taken from patent US20020169157A1, “Selective protein tyrosine phosphatatase inhibitors” (priority 2000, published 2002).

Assays:
[1] = target: T1, PP2B (Bos taurus, UniProt P48452); experiment: Inhibition constant determination, selectivity panel: PP2B (pNPP hydrolysis); assay type: biochemical, Bovine; details: competitive Ki, pNPP substrate, TRIS-HCl pH 8.6 buffer; read-out: Phosphatase Inhibition Constants (Kic) PP2B
T1 construct: purchased Sigma C1907
Method: (§1) Protein tyrosine phosphatase 1B activity was determined by measuring the rate of hydrolysis of a surrogate substrate, p-nitrophenyl phosphate (aka pNPP, C1907 Sigma, St. Louis, Mo.). The assay was carried out at room temperature in 96 well polypropylene or polyethylene plates in a total volume of 100 μL per well. Appropriate dilutions of the compounds were made in DMSO and then diluted ten fold with water. […] The reaction was initiated by adding 50 μL of diluted PTP1B diluted in 2× assay buffer containing 50 mM HEPES (pH=7.5), 300 mM NaCl and 0.2 mg/mL BSA. The phosphatase activity results in the formation of the colored product p-nitrophenol (pNP) which was continuously monitored at 405 nm every 30 seconds for 15 minutes using an appropriate plate reader. The absorbance at 405 nm was converted to nanomoles of pNP using a standard curve and the initial rate of pNP formation was calculated. […] The ratio of the apparent Km/Vmax vs. inhibitor concentration was plotted and the competitive Ki was calculated by linear regression to be the negative x-intercept. The uncompetitve Ki was similarly calculated from the x-intercept of the plot of the reciprocal of the apparent Vmax versus the inhibitor concentration. […]
(§2) The Kic and Kiu values are calculated as described for PTP1B. […]

[2] = target: T2, CD45 (Homo sapiens, UniProt P08575); experiment: Inhibition constant determination, selectivity panel: CD45 (pNPP hydrolysis); assay type: biochemical; details: competitive Ki, pNPP substrate; read-out: Phosphatase Inhibition Constants (Kic) CD45
T2 construct: purchased Biomol Research Laboratories SE-135
T2 sequence (P08575 609-1306 limits assumed): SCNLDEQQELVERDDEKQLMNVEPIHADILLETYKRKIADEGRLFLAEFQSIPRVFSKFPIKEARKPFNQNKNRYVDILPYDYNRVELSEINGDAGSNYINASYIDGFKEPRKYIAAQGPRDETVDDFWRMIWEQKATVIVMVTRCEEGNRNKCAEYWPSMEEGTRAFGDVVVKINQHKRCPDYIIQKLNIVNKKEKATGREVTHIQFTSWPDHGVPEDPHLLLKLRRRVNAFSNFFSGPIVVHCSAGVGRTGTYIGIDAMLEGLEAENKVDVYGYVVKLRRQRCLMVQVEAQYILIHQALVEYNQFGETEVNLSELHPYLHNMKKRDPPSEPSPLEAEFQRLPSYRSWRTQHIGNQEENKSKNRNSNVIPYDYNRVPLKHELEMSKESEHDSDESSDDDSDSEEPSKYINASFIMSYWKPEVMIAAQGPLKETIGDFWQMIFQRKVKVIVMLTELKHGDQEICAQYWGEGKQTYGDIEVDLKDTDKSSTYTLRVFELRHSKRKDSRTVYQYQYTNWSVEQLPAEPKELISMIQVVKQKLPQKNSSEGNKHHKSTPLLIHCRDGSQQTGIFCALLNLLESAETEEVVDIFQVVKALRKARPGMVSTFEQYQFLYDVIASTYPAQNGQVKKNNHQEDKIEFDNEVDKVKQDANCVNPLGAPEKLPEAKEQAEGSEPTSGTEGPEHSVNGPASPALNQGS
Method: as §1, §2

[3] = target: T3, CDC25c (fusion with glutathione-S-transferase) (Homo sapiens, UniProt P30307); experiment: Inhibition constant determination, selectivity panel: Cdc25c (pNPP hydrolysis); assay type: biochemical; details: competitive Ki, pNPP substrate; read-out: Phosphatase Inhibition Constants (Kic) Cdc25c
T3 construct: GST (glutathione-S-transferase); made in house; host or cells: E. coli
T3 sequence (P30307 1-473): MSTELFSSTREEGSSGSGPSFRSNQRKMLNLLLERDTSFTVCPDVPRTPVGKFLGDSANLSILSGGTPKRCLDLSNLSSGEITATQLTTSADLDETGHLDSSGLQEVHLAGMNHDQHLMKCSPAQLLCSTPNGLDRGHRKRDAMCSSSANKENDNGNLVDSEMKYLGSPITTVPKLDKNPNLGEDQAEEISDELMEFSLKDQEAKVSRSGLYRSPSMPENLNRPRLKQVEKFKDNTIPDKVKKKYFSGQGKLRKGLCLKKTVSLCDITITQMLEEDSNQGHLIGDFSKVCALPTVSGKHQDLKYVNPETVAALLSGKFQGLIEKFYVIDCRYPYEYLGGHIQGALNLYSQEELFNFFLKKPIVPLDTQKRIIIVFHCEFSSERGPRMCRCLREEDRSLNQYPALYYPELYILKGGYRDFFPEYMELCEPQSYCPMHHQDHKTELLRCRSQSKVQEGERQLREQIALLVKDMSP
Method: (§3) Protein tyrosine phosphatase 1B activity was determined by measuring the rate of hydrolysis of a surrogate substrate, p-nitrophenyl phosphate (aka pNPP, C1907 Sigma, St. Louis, Mo.). The assay was carried out at room temperature in 96 well polypropylene or polyethylene plates in a total volume of 100 μL per well. Appropriate dilutions of the compounds were made in DMSO and then diluted ten fold with water. […] The reaction was initiated by adding 50 μL of diluted PTP1B diluted in 2× assay buffer containing 50 mM HEPES (pH=7.5), 300 mM NaCl and 0.2 mg/mL BSA. The phosphatase activity results in the formation of the colored product p-nitrophenol (pNP) which was continuously monitored at 405 nm every 30 seconds for 15 minutes using an appropriate plate reader. The absorbance at 405 nm was converted to nanomoles of pNP using a standard curve and the initial rate of pNP formation was calculated. […] The ratio of the apparent Km/Vmax vs. inhibitor concentration was plotted and the competitive Ki was calculated by linear regression to be the negative x-intercept. The uncompetitve Ki was similarly calculated from the x-intercept of the plot of the reciprocal of the apparent Vmax versus the inhibitor concentration.
as §2

[4] = target: T4, SHP-2 (full length) (Homo sapiens, UniProt Q06124); experiment: Inhibition constant determination, selectivity panel: SHP-2 (pNPP hydrolysis); assay type: biochemical; details: competitive Ki, pNPP substrate; read-out: Phosphatase Inhibition Constants (Kic) SHP-2
T4 construct: SHP-2 (full length) was expressed in from E. coli; made in house; host or cells: E. coli
T4 sequence (Q06124 1-593): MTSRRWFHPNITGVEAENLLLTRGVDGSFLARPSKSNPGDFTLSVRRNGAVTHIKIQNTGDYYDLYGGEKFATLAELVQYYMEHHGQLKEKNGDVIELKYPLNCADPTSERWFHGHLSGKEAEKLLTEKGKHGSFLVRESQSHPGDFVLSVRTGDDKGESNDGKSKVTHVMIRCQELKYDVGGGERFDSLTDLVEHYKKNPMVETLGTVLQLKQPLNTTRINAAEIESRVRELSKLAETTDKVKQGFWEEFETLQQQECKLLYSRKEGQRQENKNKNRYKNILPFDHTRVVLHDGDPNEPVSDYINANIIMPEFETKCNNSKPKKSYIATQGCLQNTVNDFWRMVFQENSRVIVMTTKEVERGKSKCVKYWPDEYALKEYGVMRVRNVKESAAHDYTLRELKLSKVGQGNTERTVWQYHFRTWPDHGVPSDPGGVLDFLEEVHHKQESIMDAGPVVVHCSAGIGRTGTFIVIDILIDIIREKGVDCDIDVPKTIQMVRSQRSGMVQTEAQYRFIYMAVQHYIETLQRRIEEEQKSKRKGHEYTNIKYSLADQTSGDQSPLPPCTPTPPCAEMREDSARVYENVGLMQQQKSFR
Method: as §3, §2

[5] = target: T5, LAR (Homo sapiens, UniProt P10586); experiment: Inhibition constant determination, selectivity panel: LAR (pNPP hydrolysis); assay type: biochemical; details: competitive Ki, pNPP substrate; read-out: Phosphatase Inhibition Constants (Kic) LAR
T5 construct: purchased New England Biolabs P0750L
T5 sequence (P10586 1301-1639 limits assumed): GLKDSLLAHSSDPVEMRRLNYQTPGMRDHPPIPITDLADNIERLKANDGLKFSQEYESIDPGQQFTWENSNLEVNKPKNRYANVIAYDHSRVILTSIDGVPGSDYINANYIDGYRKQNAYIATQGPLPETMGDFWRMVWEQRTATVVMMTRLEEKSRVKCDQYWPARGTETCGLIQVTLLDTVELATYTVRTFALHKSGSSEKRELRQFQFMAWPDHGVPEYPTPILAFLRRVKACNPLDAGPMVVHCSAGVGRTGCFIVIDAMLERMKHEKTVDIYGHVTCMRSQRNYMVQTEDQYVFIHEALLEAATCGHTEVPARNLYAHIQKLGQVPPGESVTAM
Method: as §1, §2

[6] = target: T6, TC-PTP (Homo sapiens, UniProt P17706); experiment: Inhibition constant determination, selectivity panel: TCPTP (pNPP hydrolysis); assay type: biochemical; details: for Ki: competitive Ki, pNPP substrate, +/− S.D., read-out: Phosphatase Inhibition Constants (Kic) TC-PTP; for selective for PTP1B over TCPTP: from Kic values of Table 1
T6 construct: chromatography of TCPTP (amino acid residues 1-283) was on Q-Sepharose-FF
T6 sequence (P17706 1-283): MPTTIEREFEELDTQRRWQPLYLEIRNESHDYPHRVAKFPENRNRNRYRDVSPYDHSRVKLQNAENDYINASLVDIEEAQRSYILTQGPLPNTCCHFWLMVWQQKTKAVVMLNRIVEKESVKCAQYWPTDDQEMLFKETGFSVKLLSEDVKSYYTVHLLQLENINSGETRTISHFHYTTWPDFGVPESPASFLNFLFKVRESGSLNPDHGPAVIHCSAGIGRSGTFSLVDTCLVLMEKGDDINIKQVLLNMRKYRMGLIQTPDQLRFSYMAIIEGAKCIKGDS
Method: Protein tyrosine phosphatase 1B activity was determined by measuring the rate of hydrolysis of a surrogate substrate, p-nitrophenyl phosphate (aka pNPP, C1907 Sigma, St. Louis, Mo.). The assay was carried out at room temperature in 96 well polypropylene or polyethylene plates in a total volume of 100 μL per well. Appropriate dilutions of the compounds were made in DMSO and then diluted ten fold with water. […] The reaction was initiated by adding 50 μL of diluted PTP1B diluted in 2× assay buffer containing 50 mM HEPES (pH=7.5), 300 mM NaCl and 0.2 mg/mL BSA. The phosphatase activity results in the formation of the colored product p-nitrophenol (pNP) which was continuously monitored at 405 nm every 30 seconds for 15 minutes using an appropriate plate reader. The absorbance at 405 nm was converted to nanomoles of pNP using a standard curve and the initial rate of pNP formation was calculated. For each concentration of test compound (inhibitor) or DMSO control, the initial rates are used to fit the rectangular hyperbola of Michaelis-Menten by non-linear regression analysis (GraphPad Software Prism 3.0). The ratio of the apparent Km/Vmax vs. inhibitor concentration was plotted and the competitive Ki was calculated by linear regression to be the negative x-intercept. The uncompetitve Ki was similarly calculated from the x-intercept of the plot of the reciprocal of the apparent Vmax versus the inhibitor concentration.
TCPTP used was either obtained commercially (catalog#752L New England Biolabs, 32 Tozer Rd, Beverly, Mass.) or as described for PTP1B. The purification of TCPTP differed from the purification of PTP1b in that chromatography of TCPTP (amino acid residues 1-283) was on Q-Sepharose-FF (Amersham Pharmacia Biotech) in 50 mM TRIS-HC1, pH 7.5, 2 mM DTT, 10% (v/v) glycerol, and was eluted with a 3 CV gradient of 0-300 mM NaCl in the same buffer. Fractions which contained TCPTP were selected and pooled based on SDS-PAGE. They were dialyzed versus 40 mM sodium phosphate, pH 7.5, 1 M ammonium sulfate, 10% (v/v) glycerol, 2 mM DTT, 1 mM sodium azide, applied to Phenyl Sepharose FF (Amersham Pharmacia Biotech), washed with 2.5 CV of the same buffer, and eluted with a 7 CV gradient of 1M to 0M NaCl in the same buffer. Fractions were assayed, pooled, frozen and stored as described for PTP1B.
The Kic and Kiu values are calculated as described for PTP1B. The assays were performed as described for PTP-1B except for the following changes. All the phosphatases except PP2B use the same 2× assay buffer as PTP1B. […] The concentrations of pNPP present in 40 ul were the same for TCPTP, CD45, LAR and PTP1B.

[7] = target: T7, protein tyrosine phosphatase 1B (PTP1B, amino acid residues 1-321) (Homo sapiens, UniProt P18031); experiment: Inhibition constant determination for protein tyrosine phosphatase 1B (pNPP hydrolysis); assay type: biochemical; details: competitive Ki, pNPP substrate, +/− S.D.; read-out: Phosphatase Inhibition Constants (Kic) PTP1B
T7 construct: PTP1B, amino acid residues 1-321; made in house; host or cells: E. coli BL21 (DE3)
T7 sequence (P18031 1-321): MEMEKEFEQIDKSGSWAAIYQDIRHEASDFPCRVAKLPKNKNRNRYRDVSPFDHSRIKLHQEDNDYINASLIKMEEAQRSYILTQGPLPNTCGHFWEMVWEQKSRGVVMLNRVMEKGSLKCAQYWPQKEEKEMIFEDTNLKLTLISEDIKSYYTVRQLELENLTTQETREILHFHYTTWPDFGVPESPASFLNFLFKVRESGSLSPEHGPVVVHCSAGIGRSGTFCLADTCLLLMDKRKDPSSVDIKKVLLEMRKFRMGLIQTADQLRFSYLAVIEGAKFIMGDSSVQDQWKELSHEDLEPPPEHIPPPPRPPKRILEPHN
Method: Protein tyrosine phosphatase 1B activity was determined by measuring the rate of hydrolysis of a surrogate substrate, p-nitrophenyl phosphate (aka pNPP, C1907 Sigma, St. Louis, Mo.). The assay was carried out at room temperature in 96 well polypropylene or polyethylene plates in a total volume of 100 μL per well. Appropriate dilutions of the compounds were made in DMSO and then diluted ten fold with water. […] The reaction was initiated by adding 50 μL of diluted PTP1B diluted in 2× assay buffer containing 50 mM HEPES (pH=7.5), 300 mM NaCl and 0.2 mg/mL BSA. […] For each concentration of test compound (inhibitor) or DMSO control, the initial rates are used to fit the rectangular hyperbola of Michaelis-Menten by non-linear regression analysis (GraphPad Software Prism 3.0). The ratio of the apparent Km/Vmax vs. inhibitor concentration was plotted and the competitive Ki was calculated by linear regression to be the negative x-intercept. The uncompetitve Ki was similarly calculated from the x-intercept of the plot of the reciprocal of the apparent Vmax versus the inhibitor concentration.

T1 sequence (P63099 2-170 partner limits assumed, other chains not shown): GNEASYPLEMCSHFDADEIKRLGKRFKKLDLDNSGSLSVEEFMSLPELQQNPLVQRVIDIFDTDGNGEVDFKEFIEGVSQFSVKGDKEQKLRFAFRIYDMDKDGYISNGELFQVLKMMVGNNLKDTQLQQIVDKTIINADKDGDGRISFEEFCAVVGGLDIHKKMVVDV

CCc1cc(C[C@H](NC(C)=O)C(=O)NCCCCC(=O)N[C@@H](CCSC)C(=O)O)ccc1N(C(=O)C(=O)O)c1ccccc1C(=O)O [Example 3, N-{5-[(N-acetyl-4-[(carboxycarbonyl)(2-carboxyphenyl)amino]-3-ethylphenylalanyl)amino]pentanoyl}-L-methionine]
Ki [1]: > 200 µM
Ki [2]: > 200 µM
Ki [3]: > 200 µM
Ki [4]: 17 µM
Ki [5]: 5 µM

CCc1cc(C[C@H](NC(C)=O)C(=O)NCCCCOc2cccc(O)c2C(=O)OC)ccc1N(C(=O)C(=O)O)c1ccccc1C(=O)O [Example 13, Methyl 2-{4-[(N-acetyl-4-[(carboxycarbonyl)(2-carboxyphenyl)amino]-3-ethylphenylalanyl)amino]butoxy}-6-hydroxybenzoate]
Ki [1]: > 200 µM
Ki [2]: > 200 µM
Ki [3]: > 200 µM
Ki [4]: 14.2 µM
Ki [5]: 4.6 µM
Ki [6]: 0.57 µM

CCC(CN(C(=O)C(=O)O)c1ccc(C[C@H](NC(=O)OC(C)(C)C)C(=O)NCCCCOc2cccc(O)c2C(=O)OC)cc1)C(=O)O (stereo partly drawn) [Example 36, Methyl 2-(4-{[N-(tert-butoxycarbonyl)-4-[(2-carboxybutyl)(carboxycarbonyl)amino]phenylalanyl]amino}butoxy)-6-hydroxybenzoate]
Ki [7]: 1300 nM
Ki [6]: 7.9 µM
selective for PTP1B over TCPTP [6]: at least 6 fold

COC(=O)c1c(O)cccc1OCCCCNC(=O)[C@H](Cc1ccc(NC(=O)C(=O)O)cc1)NC(=O)OC(C)(C)C [Example 45, Methyl 2-(4-{[4-(carboxycarbonyl)amino-N-(tert-butoxycarbonyl)phenylalanyl]amino}butoxy)-6-hydroxybenzoate]
Ki [6]: 141 µM

COC(=O)c1c(O)cccc1OCCCCNC(=O)CCc1ccc(NC(=O)C(=O)O)c(C(=O)O)c1 [Example 52, 2-[(carboxycarbonyl)amino]-5-[3-({4-[3-hydroxy-2-(methoxycarbonyl)phenoxy]butyl}amino)-3-oxopropyl]benzoic acid]
Ki [7]: 2700 nM
Ki [6]: 38.2 µM
selective for PTP1B over TCPTP [6]: at least 14 fold
